# Results taken from US20250288553A1, “Antimicrobial Compositions and Uses for Treatment of Clostridioides difficile, Mycobacterium tuberculosis, and Enterococcus faecalis Infection” (priority 2022, published 2025).
# Values joined by “and” are separate entries in the source; they are usually repeats but may differ in a detail not shown here. Equal values may be shown once.
# Experiments:
# active Mtb = conditions: earlier screen (ref 12); cited from earlier work
# dormant Mtb = conditions: earlier screen (ref 12); cited from earlier work
# Mtb = conditions: at a concentration of 12.5 μg/mL; cited from earlier work
# [1] = system: Mycobacterium tuberculosis H37Ra ATCC 25177; assay: MIC against Mtb H37Ra, resazurin microtiter assay (REMA); assay type: cell-based
# [2] = system: TcdA production in C. difficile NAP1; assay: Toxin analysis: extracellular TcdA of C. difficile NAP1 at sub-MICs, western blot; assay type: cell-based, Clostridioides difficile; conditions: NAP1 challenged with 0.5×, 0.25×, 0.125× MIC, 48 h, TcdA normalized to total protein
# Description: After a 48 h incubation of NAP1 challenged with several dilutions of each compound, extracellular toxin in spent media derived from triplicate cultures was assessed with western blots using a monoclonal antibody against TcdA. Semi-quantitative analysis of toxin levels was performed via densitometry of TcdA band intensity with respect to total protein as measured by the Bradford assay. Semi-quantitative plots are shown below each representative blot. (a) Toxin production in BHIS (NAP1) and BHIS with 5% DMSO (vehicle). (b) Toxin production from cultures challenged with sub-MICs of fidaxomicin, (c) vancomycin, and (d-j) (+)-puupehenone and selected derivatives. Data points represent the means of adjusted toxin levels derived from triplicate cultures, while error bars represent standard deviations. Statistical analysis was performed in GraphPad Prism 8 using unpaired t-tests. *P<0.05; **P<0.01.
# To account for changes in biomass, a semi-quantitative analysis of TcdA production was performed by normalizing the target bands from representative western blots to the amount of total protein in each sample.
# Toxin analysis. Toxin production was determined by analyzing the amount of extracellular toxin in the cultures from the ASTs described above. At 48 h, total protein of each culture was determined with the Bradford assay using bovine serum albumin (BSA) as a standard.^53 Cultures were then centrifuged at 5,000×g for 5 minutes to clear the supernatants which were separately collected and frozen at −20° C. After thawing at room temperature, cell-free supernatants were mixed 1:1 with 2× Laemmli buffer and incubated in a sand bath at 100° C. for 5 minutes. Twenty microliters of denatured samples were loaded onto 7.5% Tris-glycine gels and electrophoresed at 200 V for 1 h. After electrophoresis, samples were transferred to polyvinylidene difluoride membranes at 4° C. overnight at 30 V. Membranes were incubated in a blocking buffer (20 mM Tris-HCl, 150 mM NaCl, 0.01 mM ethylenediaminetetraacetic acid, 0.1% Tween 20, 1% BSA, [pH 7.5]) for 1 h at room temperature. TcdA was detected with a monoclonal mouse anti-TcdA antibody (PCG4.1, Novus Biologicals) and a rabbit anti-mouse antibody conjugated with alkaline phosphatase. Blots were visualized with a ChemiDoc XRS+ imaging system (Bio-Rad).
# Semi-quantitative analysis of TcdA was performed using Image Lab 6.0 software (Bio-Rad). Briefly, after subtracting background noise, peaks corresponding to the target band were selected with the software's Lane Profile tool. The density of each peak generated a value (arbitrary units) that was normalized to the total protein amount of each respective sample. […] These losses of activity prevented us from performing statistical analysis from multiple experiments, as the sub-MICs were not always the same. Since there were no changes to the methodology described, several other reasons could have accounted for decreased activity, such as compound stability, freeze-thaw, and adherence to plastic. Nevertheless, the toxin results were reproducible, irrespective of the exact sub-MICs on different days.
# [3] = system: M. smegmatis mc^2155 ATCC 700084; assay: MIC against M. smegmatis, REMA; assay type: cell-based, Mycobacterium smegmatis; conditions: Mycolicibacterium smegmatis, ATCC700084|MC^2155; determined visually by REMA assay, 24-hour incubation
# [4] = system: Clostridioides difficile NAP1; assay: MIC against C. difficile NAP1, modified broth microdilution; conditions: for MIC C. difficile: NAP1, modified broth microdilution, 48 h, anaerobic
# [5] = system: J774A.1 (murine macrophage-like) cell line; assay: Cytotoxicity assay J774A.1; assay type: cell-based
# Description: (§1) To evaluate the selectivity of the top six compounds from the Mtb-lux activity screen (Table 2), cytotoxicity for two different mammalian cell lines was determined. The IC50 was calculated for each compound against J774A.1 and HepG2 cell lines. The selectivity index (SI) for both replicating and dormant conditions was then calculated by taking the IC50 and dividing it by the corresponding MIC (SIR=IC50/MICR, SID=IC50/MICD)^40. Consistent with the experience, the J774 macrophage cell line was more sensitive to all compounds tested. […] Based on these observations, this triacetate protected puupehenone represents a promising candidate for further optimization.
# (§2) Cytotoxicity assay: Cytotoxicity was assessed using J774A.1 (murine macrophage-like) and HepG2 (human liver carcinoma) cell lines using 2-fold dilution of the compounds as described previously^42, 43. IC50 values were determined using nonlinear regression fitting of the databy GraphPad Prism. The selectivity Index (SI) was calculated as IC50/MIC.
# [6] = Cytotoxicity assay J774A.1; assay type: cell-based, murine; conditions: mouse, J774A.1 macrophage-like cells; J774A.1 cells; read-out: Cytotoxicity (IC50) J774
# Description: as §1, §2
# [7] = system: dormant Mtb-lux (Mycobacterium tuberculosis CDC1551 with pMV306hsp+LuxG13); assay type: cell-based; conditions: for R/D (MICR/MICD, Mtb-lux): ratio replicating MIC to dormant MIC
# [8] = system: replicating Mtb-lux (Mycobacterium tuberculosis CDC1551 with pMV306hsp+LuxG13); assay type: cell-based
# Cytotoxicity assay HepG2 = conditions: human
# [9] = system: HepG2 (human liver carcinoma) cell line; assay: Cytotoxicity assay HepG2
# [10] = system: Bacillus subtilis ATCC 23857; assay: MIC against B. subtilis, REMA; conditions: REMA, visual, 24 h
# [11] = system: Enterococcus faecalis ATCC 29212; assay: MIC against E. faecalis, REMA; conditions: REMA, visual, 24 h
# [12] = system: Staphylococcus aureus ATCC 25923; assay: MIC against S. aureus, REMA; conditions: visual, 24 h
SMILES,Effect on TcdA toxin production [2],MIC C. difficile [4],MICD (Mtb-lux) [7] [µg/mL],"R/D (MICR/MICD, Mtb-lux) [7]",MICR (Mtb-lux) [8] [µg/mL],MIC B. subtilis [10],MIC E. faecalis [11],MIC S. aureus [12],other results
"CC1(C)CCC[C@]2(C)C3=CC4=CC(=O)C(=O)C=C4O[C@@]3(C)CC[C@@H]12 [Compound 2, Puupehedione]",,,,,,,,,MIC against active Mtb (active Mtb): 87.6 µg/mL; MIC in multistress dormancy model of Mtb (dormant Mtb): 15.4 µg/mL
"CO[C@@H]1c2cc(O)c(O)cc2O[C@@]2(C)CCC3C(C)(C)CCC[C@]3(C)[C@@H]12 (stereo partly drawn) [Compound 3, 15-α-methoxypuupehenol]",,,,,,,,,MIC against active Mtb (active Mtb): 11.3 µg/mL; MIC in multistress dormancy model of Mtb (dormant Mtb): 0.5 µg/mL
"CC1(C)CCC[C@]2(C)[C@H]3[C@H](C#N)c4cc(O)c(O)cc4O[C@@]3(C)CC[C@@H]12 [Compound 4, 15-α-cyanopuupehenol]",,,,,,,,,inhibition of Mtb (Mtb): 96%
"CC1(C)CCC[C@]2(C)[C@H]3C(C#N)=C4C=C(O)C(=O)C=C4O[C@@]3(C)CC[C@@H]12 [Compound 5, 15-cyanopuupehenone]",,,,,,,,,inhibition of Mtb (Mtb): 90%
CO[C@@H]1c2cc(OC(C)=O)c(OC(C)=O)cc2O[C@@]2(C)CC[C@H]3C(C)(C)CCC[C@]3(C)[C@@H]12 [Compound 15],decreased the amount of toxin in a similar concentration-dependent manner,4.0 µg/mL,1.7,5.2,8.9,,,,"MIC ([1]; Mycobacterium tuberculosis, 336 h, determined visually by REMA assay, 14-day incubation, read-out: MIC Mtb H37Ra): 2.7 µg/mL; MIC [3]: 22.2 µg/mL; MIC ([4]; Clostridioides difficile, NAP1, 48 h, read-out: MIC C. difficile, NAP1, modified broth microdilution, 48 h, anaerobic): 2 to 4 µg/mL; SI (SID) J774 [5]: 34.8; SI (SIR) J774 [5]: 6.6; IC50 [6]: 59.1 µM; IC50 (Cytotoxicity assay HepG2): ~107 µM; SI (SID) HepG2 [9]: 62.9; SI (SIR) HepG2 [9]: 12.0"
"CC1(C)CCC[C@]2(C)[C@@H]1CC[C@]1(C)Oc3ccc(O)cc3C[C@@H]21 [Compound 31, (+)-Chromazonarol]",,inactive,32,1.8,56.5,8.6 µg/mL,inactive,inactive,MIC Mtb H37Ra [1]: 31.4 µg/mL
CC1(C)CCCC2(C)C1CCC(C)(O)C2Cc1ccc(O)cc1 (stereo not drawn) [Compound 34],decreased the amount of toxin in a similar concentration-dependent manner,16.0 µg/mL,30.9,3.7,114.3,7.9 µg/mL,15.8 µg/mL,16.9 µg/mL,
CC1(C)CCCC2(C)C1CCC(C)(O)C2Cc1ccc(O)cc1O (stereo not drawn) [Compound 36],did not appear to substantially change toxin production,8.0 µg/mL,,,,8.2 µg/mL and 8.3 µg/mL,16.2 µg/mL,16.6 µg/mL,
CC1(C)CCCC2(C)C1CCC(C)(O)C2Cc1ccc(O)c(O)c1 (stereo not drawn) [Compound 38],,did not exhibit any activity,42.0,1.4,58.0,did not exhibit any activity,did not exhibit any activity,did not exhibit any activity,
